Test results taken from patent US20100104621A1, “TREATING ADHD AND OTHER DISEASES INVOLVING INFLAMMATION” (CONNECTED HEALTH SYSTEMS, LLC, priority 2007, published 2010).

What was measured:
ovarian cancer = conditions: in 10 days, animal studies; cited from earlier work
VEGF = conditions: animal studies; cited from earlier work
[1] = test system: patient with OCD and ADHD, and their child; test: Example 4: family with history of ADHD, OCD and cancer; type: in vivo, human
Description: The 5HT2A receptor has been associated with OCD, Seasonal Affective Disorder, Alcoholism, and a predisposition toward Schizophrenia. The gene for this receptor is found on chromosome 13. A patient presents with OCD and ADHD. Two of their children also are diagnosed with OCD and ADHD. […] They test positive for BRCA2 which is also found on chromosome 13 in the same region as the gene for the 5HT2A receptor.
Lowered catecholamines lead to slightly elevated prolactin and can alter GnRH. Elevated GnRH leads to spikes in estrogen and progesterone and may eventually lead to premature ovarian failure along with alterations in inflammation and co-factors. Elevated interleukins lead to increased free radical production and damage to DNA. Lowered dopamine would allow for angiogenesis. Elevated interleukins could induce CREB and increase the expression of ICAM and VCAM. BRCA2 lowers p53, p21 (tumor suppressor genes) as well as RAD51, which repairs damage to DNA. Catecholamines may interact with genes involved in cancer via common second messenger systems. Laboratory tests reveal that the patient has a high vitamin B6 level of 100, and an abnormal amino acid profile.
Treatment of the patient includes administering an extended release CNS stimulant at an appropriate dosage to achieve the desired therapeutic effect, substantially around the clock. […]

[2] = test system: person with stage 4 ovarian cancer; test: Example 6: person with stage 4 ovarian cancer; type: in vivo, human; conditions: with Adderall XR
Description: A person presents with stage 4 ovarian cancer, skin picking, irritable bowel syndrome, PMS, allergies, and a tonsillectomy. They are BRCA1 positive and lost their parent due to breast cancer. Other family members have succumbed to breast cancer, pancreatic cancer, and colon cancer. They are screened for ADHD and is started on Adderall XR and titrated up to 15 mgs three times a day. They are tapered off Prozac for depression. Six weeks later they state that their depression is gone and their energy level is back to normal and their strength is retuning. Their nausea is also gone. […] When they ran out of vitamin B6, their skin picking returns in one week, but stops the day they resume taking vitamin B6.
Catecholamines may interact with genes involved in cancer in certain tissues. BRCA1 knocks p21, p53, and RAD51 out. Genes can be turned on and off based on signaling. Their amino acid profile fits with a defect in pyridoxine-5′-phosphate oxidase which is located on […]. This is beside BRCA1 on chromosome 17. It is possible the patient has a defect in SLC6A4 not ADHD 2 on 17p11.2. 17p11.2 is the site of serine hydroxymethyltransferase. Additionally, it is possible that second messengers that are inactivated by BRCA-1 are responsible for lowering their catecholamines. […]

[3] = test system: obese person diagnosed with ADHD; test: Example 5: treatment of obese person with ADHD; type: in vivo, human; conditions: with Adderall XR; amino acid supplements for 4 months then stopped
Description: An obese person presents complaining of depression. They are on Lipitor for high cholesterol and has a heart rate of 116 and a blood pressure of 166/112. They also have “heart burn”. They are diagnosed with ADHD and titrated up to 15 mgs of Adderall XR three times a day. Their heart rate decreases to 100 at the first visit four weeks later and after 8 weeks it is 88. Based on lab reports, their vitamin B6 level is elevated at 56 and they are deficient in arginine, ornithine, histidine, threonine, and taurine along with other amino acids. They also have an elevated IL-6 level. Their vitamin D3 level is also very low. They are started on P-5-P and is supplemented with the aforementioned amino acids to help replenish their body. Their taurine level is 18 and normal is at 54. They are a candidate for developing a cardiac arrhythmia.
[…] Their blood pressure and heart rate continue to decline and they begin to lose weight despite having a normal appetite. […] Their depression is gone and they are dreaming about becoming a lawyer. They remain on Adderall XR, however their dose is decreased to 10 mgs three times a day. They remain on P-5-P. The patient's amino acid profile is normal and their CRP is normal. CRP is an indirect measure of IL-6 and is impacted by low levels of P-5-P.

[4] = test system: pyramidal neurons in the medial prefrontal cortex; conditions: after 12 days of continuous administration; cited from earlier work

For `NCCc1ccc(O)c(O)c1` [Dopamine], the “shrinkage of ovarian cancer” value (ovarian cancer) is given as 80% and the “effect on VEGF” value (VEGF) is given as “inhibit”.
For `Cc1ncc(COP(=O)(O)O)c(C=O)c1O` [P-5-P, pyridoxal 5′-phosphate], the amino acid profile ([1]; child, with around the clock stimulant, fish oil and antioxidants) was “returns to normal”, the amino acid profile ([1]; parent, 100 mgs, with extended release CNS stimulant) was “corrects” and the skin picking [2] was “stops that same day”. For the same molecule, the CRP [3] was “normal” and the amino acid profile [3] was “normal”.
For `CC(N)Cc1ccccc1` (centres unmarked) [amphetamine], the “dendritic length and branches of pyramidal neurons in the medial prefrontal cortex” value [4] is listed as “increase in dendritic length and branches”.
